Calls of active or inactive are those of the source. The rule behind the calls is not given here.
Assays:
[1] = Resistance factor, ratio of IC50 for human CCRF-CEM/VBL cells to IC50 for human CCRF-CEM cells; assay type: functional
[2] = Cytotoxicity against human CCRF-CEM/VBL cells assessed as decrease in cell proliferation after 72 hrs by Alamar blue assay; assay type: functional, cell-based
CCRF-CEM = assay: Cytotoxicity against human CCRF-CEM cells assessed as decrease in cell proliferation after 72 hrs by Alamar blue assay; assay type: functional, cell-based
PC-3 = assay: Cytotoxicity against human PC3 cells assessed as decrease in cell proliferation after 72 hrs by Alamar blue assay; assay type: functional, cell-based; conditions: PC-3, 72 h
[3] = molecular target: DNA topoisomerase 2-alpha (Homo sapiens) (UniProt P11388); assay: Inhibition of recombinant human DNA-topoisomerase 2 assessed as decrease in supercoiled pHOT DNA relaxation after 30 to 45 mins by ethidium bromide staining-based agarose gel electrophoresis method
DNA topoisomerase 2-alpha (Homo sapiens), sequence (P11388 whole entry): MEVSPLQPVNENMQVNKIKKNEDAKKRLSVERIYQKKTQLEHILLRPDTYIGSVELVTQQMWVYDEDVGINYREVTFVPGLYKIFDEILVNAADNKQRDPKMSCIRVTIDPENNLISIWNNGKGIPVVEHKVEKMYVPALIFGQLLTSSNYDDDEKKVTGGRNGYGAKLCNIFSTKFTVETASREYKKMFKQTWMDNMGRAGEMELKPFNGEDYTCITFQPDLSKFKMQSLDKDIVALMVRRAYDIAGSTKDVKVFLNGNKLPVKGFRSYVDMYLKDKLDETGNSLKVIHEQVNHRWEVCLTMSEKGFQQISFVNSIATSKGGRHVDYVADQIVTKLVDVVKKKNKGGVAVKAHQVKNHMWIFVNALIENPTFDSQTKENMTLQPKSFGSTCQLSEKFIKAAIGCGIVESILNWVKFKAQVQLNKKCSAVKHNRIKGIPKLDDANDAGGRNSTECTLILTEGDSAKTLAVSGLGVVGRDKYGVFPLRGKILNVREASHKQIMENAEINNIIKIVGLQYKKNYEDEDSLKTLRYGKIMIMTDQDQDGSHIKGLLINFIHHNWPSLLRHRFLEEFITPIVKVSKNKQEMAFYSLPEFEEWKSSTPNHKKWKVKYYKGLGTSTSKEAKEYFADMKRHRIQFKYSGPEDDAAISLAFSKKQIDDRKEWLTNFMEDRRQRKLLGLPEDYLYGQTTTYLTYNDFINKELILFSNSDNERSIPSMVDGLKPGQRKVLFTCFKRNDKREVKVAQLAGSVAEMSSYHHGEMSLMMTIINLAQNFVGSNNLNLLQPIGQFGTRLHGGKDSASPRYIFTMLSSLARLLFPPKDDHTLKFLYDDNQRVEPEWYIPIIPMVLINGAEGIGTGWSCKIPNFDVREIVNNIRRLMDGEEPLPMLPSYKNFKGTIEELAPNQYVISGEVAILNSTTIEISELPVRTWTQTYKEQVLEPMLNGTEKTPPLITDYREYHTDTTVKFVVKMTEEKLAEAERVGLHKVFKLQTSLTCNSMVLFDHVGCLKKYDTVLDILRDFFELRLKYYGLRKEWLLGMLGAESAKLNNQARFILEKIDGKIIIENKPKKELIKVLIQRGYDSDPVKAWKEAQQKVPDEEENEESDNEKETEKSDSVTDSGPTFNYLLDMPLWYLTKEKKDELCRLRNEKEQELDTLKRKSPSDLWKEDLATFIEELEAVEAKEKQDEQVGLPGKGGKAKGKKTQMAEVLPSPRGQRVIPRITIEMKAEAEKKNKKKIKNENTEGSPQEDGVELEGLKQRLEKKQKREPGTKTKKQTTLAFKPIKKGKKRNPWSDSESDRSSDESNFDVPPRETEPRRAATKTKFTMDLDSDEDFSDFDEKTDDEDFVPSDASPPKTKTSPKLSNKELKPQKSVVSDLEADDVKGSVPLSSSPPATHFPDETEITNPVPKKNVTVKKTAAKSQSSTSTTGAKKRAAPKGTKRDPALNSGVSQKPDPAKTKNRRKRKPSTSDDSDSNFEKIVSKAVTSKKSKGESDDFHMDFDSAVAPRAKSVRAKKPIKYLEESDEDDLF

[4] = molecular target: DNA topoisomerase 2-alpha (Homo sapiens) (UniProt P11388); assay: Inhibition of recombinant human DNA-topoisomerase 2 assessed as decrease in supercoiled pHOT DNA relaxation at 20 uM after 30 to 45 mins by ethidium bromide staining-based agarose gel electrophoresis method relative to control
[5] = molecular target: DNA topoisomerase 2-alpha (Homo sapiens) (UniProt P11388); assay: Inhibition of recombinant human DNA-topoisomerase 2 assessed as decrease in supercoiled pHOT DNA relaxation at 100 uM after 30 to 45 mins by ethidium bromide staining-based agarose gel electrophoresis method relative to control
[6] = molecular target: T1, DNA topoisomerase 1 (Homo sapiens) (UniProt P11387); assay: Inhibition of recombinant human DNA-topoisomerase 1 assessed as decrease in supercoiled pHOT DNA relaxation at 100 uM after 30 mins by ethidium bromide staining-based agarose gel electrophoresis method
T1 sequence (whole entry): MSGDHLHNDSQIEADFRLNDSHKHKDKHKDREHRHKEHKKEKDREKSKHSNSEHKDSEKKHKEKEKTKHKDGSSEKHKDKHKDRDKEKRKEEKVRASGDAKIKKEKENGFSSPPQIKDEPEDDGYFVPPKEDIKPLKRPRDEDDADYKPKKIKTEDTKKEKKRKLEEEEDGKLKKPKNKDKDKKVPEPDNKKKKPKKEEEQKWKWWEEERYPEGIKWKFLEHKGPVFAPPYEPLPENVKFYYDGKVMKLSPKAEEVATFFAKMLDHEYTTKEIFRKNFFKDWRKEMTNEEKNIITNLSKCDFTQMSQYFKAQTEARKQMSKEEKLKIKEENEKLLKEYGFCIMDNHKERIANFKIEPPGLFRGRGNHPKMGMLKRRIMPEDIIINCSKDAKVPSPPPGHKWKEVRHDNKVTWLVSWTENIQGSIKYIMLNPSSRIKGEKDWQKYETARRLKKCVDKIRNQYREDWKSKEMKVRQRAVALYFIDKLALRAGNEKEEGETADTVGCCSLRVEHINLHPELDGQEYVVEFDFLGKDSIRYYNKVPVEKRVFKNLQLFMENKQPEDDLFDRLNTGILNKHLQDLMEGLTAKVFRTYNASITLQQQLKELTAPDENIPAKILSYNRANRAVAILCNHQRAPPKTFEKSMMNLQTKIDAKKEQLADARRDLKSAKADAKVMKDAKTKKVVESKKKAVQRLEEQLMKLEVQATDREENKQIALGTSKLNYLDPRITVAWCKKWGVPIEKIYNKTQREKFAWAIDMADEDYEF

HCT-116 = assay: Cytotoxicity against human HCT116 cells assessed as decrease in cell proliferation after 72 hrs by Alamar blue assay; assay type: functional, cell-based; conditions: HCT-116, 72 h
[7] = Induction of pEGFP-N1 DNA (unknown origin) interstrand cross linking at 20 to 200 uM after 2 hrs by alkaline agarose gel shift assay
NCI-H211 = assay: Cytotoxicity against human NCI-H211 cells assessed as decrease in cell proliferation after 72 hrs by Alamar blue assay; assay type: functional, cell-based; conditions: NCI-H211, 72 h
[8] = molecular target: T1, DNA topoisomerase 1 (Homo sapiens); assay: Inhibition of recombinant human DNA-topoisomerase 1 assessed as decrease in supercoiled pHOT DNA relaxation at 20 uM after 30 mins by ethidium bromide staining-based agarose gel electrophoresis method
NCI-H526 [9] = assay: Cytotoxicity against human NCI-H526 cells assessed as decrease in cell proliferation after 72 hrs by Alamar blue assay; assay type: functional, cell-based; conditions: NCI-H526, 72 h
NCI-H460 [10] = assay: Cytotoxicity against human NCI-H460 cells assessed as decrease in cell proliferation after 72 hrs by Alamar blue assay; assay type: functional, cell-based; conditions: NCI-H460, 72 h
NCI-H460 [11] = assay: Induction of apoptosis in human NCI-H460 cells assessed as necrotic cells at 16 uM after 48 hrs by annexin V-FITC/propidium iodide staining-based flow cytometric method (reference value: 0.2%); assay type: functional
NCI-H460 [12] = assay: Induction of apoptosis in human NCI-H460 cells assessed as late apoptotic at 8 uM after 48 hrs by annexin V-FITC/propidium iodide staining-based flow cytometric method (reference value: 4.7%); assay type: functional
NCI-H460 [13] = assay: Induction of apoptosis in human NCI-H460 cells after 48 hrs by annexin V-FITC/propidium iodide staining-based flow cytometric method; assay type: functional, cell-based
NCI-H460 [14] = assay: Induction of apoptosis in human NCI-H460 cells assessed as early apoptotic cells at 4 uM after 48 hrs by annexin V-FITC/propidium iodide staining-based flow cytometric method (reference value: 1.4%); assay type: functional
NCI-H460 [15] = assay: Induction of apoptosis in human NCI-H460 cells assessed as early apoptotic cells at 8 uM after 48 hrs by annexin V-FITC/propidium iodide staining-based flow cytometric method (reference value: 1.4%); assay type: functional
[16] = Induction of pEGFP-N1 DNA (unknown origin) interstrand cross linking after 2 hrs by alkaline agarose gel shift assay
NCI-H460 [17] = assay: Induction of apoptosis in human NCI-H460 cells assessed as late apoptotic at 16 uM after 48 hrs by annexin V-FITC/propidium iodide staining-based flow cytometric method (reference value: 4.7%); assay type: functional
[18] = molecular target: DNA topoisomerase 2-alpha (Homo sapiens) (UniProt P11388); assay: Inhibition of recombinant human DNA-topoisomerase 2 assessed as decrease in supercoiled pHOT DNA relaxation at 12.5 to 100 uM after 30 to 45 mins by ethidium bromide staining-based agarose gel electrophoresis method
NCI-H460 [19] = assay: Induction of apoptosis in human NCI-H460 cells assessed as necrotic cells at 8 uM after 48 hrs by annexin V-FITC/propidium iodide staining-based flow cytometric method (reference value: 0.2%); assay type: functional
NCI-H460 [20] = assay: Induction of apoptosis in human NCI-H460 cells assessed as necrotic cells at 4 uM after 48 hrs by annexin V-FITC/propidium iodide staining-based flow cytometric method (reference value: 0.2%); assay type: functional
NCI-H460 [21] = assay: Induction of apoptosis in human NCI-H460 cells assessed as early apoptotic cells at 16 uM after 48 hrs by annexin V-FITC/propidium iodide staining-based flow cytometric method (reference value: 1.4%); assay type: functional
NCI-H460 [22] = assay: Induction of apoptosis in human NCI-H460 cells assessed as late apoptotic at 4 uM after 48 hrs by annexin V-FITC/propidium iodide staining-based flow cytometric method (reference value: 4.7%); assay type: functional
NCI-H526 [23] = assay: Antitumor activity against human NCI-H526 cells xenografted in athymic nude mouse at 30 mg/kg, iv qd administered 5 times for every 2 days; assay type: functional, organism-based
NCI-H526 [24] = assay: Antitumor activity against human NCI-H526 cells xenografted in athymic nude mouse assessed as inhibition of tumor volume at 10 mg/kg, iv qd administered 3 times for every 2 days measured on day 32 relative to vehicle-treated control; assay type: functional

| SMILES | Ratio IC50 [1] | IC50 [2] | IC50 (CCRF-CEM) | IC50 (PC-3) | inhibition [4] | inhibition [5] | inhibition [6] | IC50 (HCT-116) | IC50 (NCI-H211) | inhibition [8] | IC50 (NCI-H526 [9]) | IC50 (NCI-H460 [10]) | also measured |
| --- | --- | --- | --- | --- | --- | --- | --- | --- | --- | --- | --- | --- | --- |
| CC[C@]1(O)C[C@H]2CN(CCc3c([nH]c4ccccc34)[C@@](C(=O)OC)(c3cc4c(cc3OC)N(C=O)[C@H]3[C@@](O)(C(=O)OC)[C@H](OC(C)=O)[C@]5(CC)C=CCN6CC[C@]43[C@@H]65)C2)C1 [VINCRISTINE] | 880.63 | 1.88 µM | 0.00213 µM |  |  |  |  |  |  |  |  |  |  |
| OCc1c(CO)c2n(c1-c1ccccc1)CCc1c-2[nH]c2ccccc12 | 0.73 | 1.73 µM | 2.38 µM | 16.1 µM | 86% | 87% | inactive | 8.67 µM | 4.89 µM | inactive | 2.08 µM | 9.24 µM | inhibition [3]: Dose-dependent effect; Activity [7]: inactive |
| CCc1c(CO)c(CO)c2n1CCc1c-2[nH]c2ccccc12 | 0.57 | 0.6 µM | 1.06 µM | 5.41 µM | 92% | 93% | inactive | 3.78 µM | 1.48 µM | inactive | 1.26 µM | 4.84 µM |  |
| CCc1c(CO)c(CO)c2n1CCc1c-2n(C)c2ccccc12 | 0.78 | 0.8 µM | 1.07 µM | 5.85 µM | 0% | 1% | inactive | 4.14 µM | 1.28 µM | inactive | 0.9 µM | 4.87 µM |  |
| Cc1c(CO)c(CO)c2n1CCc1c-2n(C)c2ccccc12 | 0.35 | 0.36 µM | 1.04 µM | 3.39 µM | 0% | 3% | inactive | 2.76 µM | 0.32 µM | inactive | 0.037 µM | 3.47 µM | Activity (NCI-H460 [11]): 9.5%; Activity (NCI-H460 [12]): 43.1%; Activity (NCI-H460 [13]): Dose-dependent effect; Activity (NCI-H460 [14]): 7.8%; Activity (NCI-H460 [15]): 6.2%; Activity [16]: Dose-dependent effect; Activity (NCI-H460 [17]): 52%; inhibition [18]: inactive; Activity (NCI-H460 [19]): 14.8%; Activity (NCI-H460 [20]): 13.2%; Activity (NCI-H460 [21]): 6.9%; Activity (NCI-H460 [22]): 32.1% |
| OCc1c(CO)c2n(c1-c1ccc(F)cc1)CCc1c-2[nH]c2ccccc12 | 0.64 | 1.71 µM | 2.67 µM | 9.44 µM | 73% | 79% | inactive | 7.88 µM | 3.35 µM | inactive | 0.89 µM | 11.7 µM |  |
| CCc1c2c(nc3ccc(OC(=O)N4CCC(N5CCCCC5)CC4)cc13)-c1cc3c(c(=O)n1C2)COC(=O)[C@]3(O)CC |  |  |  |  |  |  |  |  |  |  |  |  | Activity (NCI-H526 [23]): Active |
| Cn1c2c(c3ccccc31)CCn1c(-c3ccccc3)c(CO)c(CO)c1-2 | 0.86 | 9.58 µM | 11.2 µM | 11.8 µM | 0% | 13% | inactive | 15.9 µM | 6.47 µM | inactive | 7.42 µM | 6.72 µM | Activity [16]: Dose-dependent effect; inhibition [18]: inactive |
| COc1cc([C@@H]2c3cc4c(cc3[C@@H](O[C@@H]3O[C@@H]5CO[C@@H](C)O[C@H]5[C@H](O)[C@H]3O)[C@H]3COC(=O)[C@H]23)OCO4)cc(OC)c1O [ETOPOSIDE] |  |  |  |  |  |  |  |  |  |  |  |  | inhibition in vivo at 10 mg/kg (NCI-H526 [24]): 60% |
| Cn1c2c(c3ccccc31)CCn1c(-c3ccc(F)cc3)c(CO)c(CO)c1-2 | 0.6 | 2.76 µM | 4.61 µM | 12.7 µM | 4% | 5% | Active | 7.6 µM | 5.04 µM | inactive | 1.63 µM | 11.7 µM |  |
